Assay results from the NIST ThermoML archive (doi:10.1021/je8001267).

Conditions: Liquid, Closed cell (Static) method

N [ammonia]
Conditions	vapor or sublimation pressure [kPa]
303.12 K	1166
313.14 K	1553
323.16 K	2030
333.13 K	2609
343.13 K	3305
353.13 K	4132
363.12 K	5105
373.16 K	6243
